Results reported in patent US12509459B2, “Inhibitors of NLRP3 inflammasome” (BioAge Labs, Inc., priority 2024, dated 2025).

Legend:
[1] = tested on: DIO mice; experiment: Diet-induced obesity (DIO) mouse model; type: in vivo; conditions: for body weight of DIO mice / food consumption / fat mass: Compound 096/211 study; for body weight of DIO mice: FIGS. 14A and 14B; for Day 14 BW % change vs. baseline / food consumption / fat mass: DIO mice; for Day 14 BW % change vs. baseline: 50 mpk, po, qd; for food consumption: FIG. 14; for fat mass: FIG. 15; for body weight of high fat DIO mice / food consumption of high fat DIO mice: summary, comparable to the effect of Semaglutide
[2] = target: NLRP3 (Homo sapiens, UniProt Q96P20); experiment: THP-1 cell-based NLRP3 activation assay; parameters: endogenous in cells; host or cells: THP-1 cells (PMA-differentiated, LPS-primed, nigericin-stimulated); conditions: PMA-differentiated THP-1 cells, LPS 100 ng/mL then 10 μM nigericin
In short: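 After 30 min compound preincubation, inflammasome activation was triggered with 10 μM nigericin (1 h) in LPS-primed (100 ng/mL, 3 h) THP-1 cells differentiated with PMA at 20 nM/24 h or 500 nM/3 h. CellTiter-Glo measured residual cell viability.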

[3] = tested on: foot gout mouse model; experiment: Foot gout mouse model; type: in vivo; conditions: FIG. 16 and FIG. 17

Sequence of NLRP3 (Q96P20 whole entry): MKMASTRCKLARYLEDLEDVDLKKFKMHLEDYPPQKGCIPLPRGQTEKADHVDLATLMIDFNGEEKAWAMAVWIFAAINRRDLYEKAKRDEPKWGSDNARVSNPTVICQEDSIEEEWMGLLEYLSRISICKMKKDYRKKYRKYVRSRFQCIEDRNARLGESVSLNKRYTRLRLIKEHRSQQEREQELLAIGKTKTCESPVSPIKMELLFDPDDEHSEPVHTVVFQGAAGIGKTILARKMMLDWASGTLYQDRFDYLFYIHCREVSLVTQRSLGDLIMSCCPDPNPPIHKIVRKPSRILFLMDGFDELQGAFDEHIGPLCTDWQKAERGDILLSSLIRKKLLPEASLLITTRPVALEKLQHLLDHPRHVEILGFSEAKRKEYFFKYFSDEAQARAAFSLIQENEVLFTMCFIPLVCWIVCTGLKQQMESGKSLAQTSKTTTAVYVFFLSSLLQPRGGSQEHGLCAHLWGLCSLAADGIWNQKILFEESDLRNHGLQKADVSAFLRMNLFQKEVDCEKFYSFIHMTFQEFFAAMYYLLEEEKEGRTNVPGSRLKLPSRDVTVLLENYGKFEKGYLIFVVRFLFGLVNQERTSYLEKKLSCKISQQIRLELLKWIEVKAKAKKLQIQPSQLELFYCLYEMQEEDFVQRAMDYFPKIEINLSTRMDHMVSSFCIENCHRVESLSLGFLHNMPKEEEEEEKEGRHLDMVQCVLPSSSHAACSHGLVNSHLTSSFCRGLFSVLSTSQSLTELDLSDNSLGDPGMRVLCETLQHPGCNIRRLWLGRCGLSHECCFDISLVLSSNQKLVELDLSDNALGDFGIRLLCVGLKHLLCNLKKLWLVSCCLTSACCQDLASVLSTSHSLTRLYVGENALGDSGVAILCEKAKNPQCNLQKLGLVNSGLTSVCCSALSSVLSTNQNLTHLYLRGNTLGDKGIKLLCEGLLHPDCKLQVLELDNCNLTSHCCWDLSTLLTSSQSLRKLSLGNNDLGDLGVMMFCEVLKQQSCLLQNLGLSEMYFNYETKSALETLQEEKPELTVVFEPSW

SMILES	IC50 [2] [nM]	further results
[2H]C([2H])([2H])N(CC[C@H](c1cncc2cn[nH]c12)N(C)C(=O)c1ccc(-c2cccc(F)c2)c(OCC)c1)C([2H])([2H])[2H] [Compound 211]	< 100	body weight of DIO mice [1]: dose-dependent effect on reducing body weight; Day 14 BW % change vs. baseline [1]: −14.9%; food consumption [1]: dose-dependent effect on reducing food consumption; fat mass [1]: caused a change in fat mass; body weight of high fat DIO mice [1]: significantly reduced; food consumption of high fat DIO mice [1]: significantly reduced
CCOc1cc(C(=O)N(C)[C@H](CCN(C)C)c2cncc3cn[nH]c23)ccc1-c1ccccc1 [Compound 096]	< 100	body weight of DIO mice [1]: dose-dependent effect on reducing body weight; Day 14 BW % change vs. baseline [1]: −11.9%; food consumption [1]: dose-dependent effect on reducing food consumption; fat mass [1]: caused a change in fat mass; body weight of high fat DIO mice [1]: significantly reduced; food consumption of high fat DIO mice [1]: significantly reduced; swelling [3]: reduce swelling in a foot gout mouse model in a dose dependent manner
CCOc1cc(C(=O)N(C)[C@H](CCN)c2cncc3cn[nH]c23)ccc1-c1ccccc1 [Compound 140]	< 100	–
CCOc1cc(C(=O)N(C)[C@H](c2cncc3cn[nH]c23)C2CN(CC)C2)ccc1-c1cccc(Cl)c1 [Compound 131]	< 100	–
CCOc1cc(C(=O)N(C)[C@@H](CN(C)CC)c2cccc3cn[nH]c23)ccc1-c1cccc(F)c1 [Compound 259]	< 100	–
CCOc1cc(C(=O)N(C)[C@H](CCN(C)CC)c2cccc3cn[nH]c23)ccc1-c1cccc(F)c1 [Compound 214]	< 100	–
CCOc1cc(C(=O)N(C)[C@H](CCN(C)CCCF)c2cncc3cn[nH]c23)ccc1-c1ccccc1 [Compound 138]	< 100	–
CCOc1cc(C(=O)N(C)[C@H](CC[N+](C)([O-])CC)c2cncc3cn[nH]c23)ccc1-c1cccc(Cl)c1 (some centres unmarked) [Compound 254]	< 100	–
CN(C)CC[C@H](c1cncc2cn[nH]c12)N(C)C(=O)c1ccc(-c2ccccc2)c(OC2CC2)c1 [Compound 073]	< 100	–
CCOc1cc(C(=O)N(C)[C@H](c2cncc3cn[nH]c23)C2CNC2)ccc1-c1cccc(C)c1 [Compound 170]	< 100	–
Cc1ccc([C@@H](CCN(C)C)N(C)C(=O)c2ccc(-c3cccc(F)c3)c(OC3CC3)c2)c2[nH]ncc12 [Compound 202]	< 100	–
CCOc1cc(C(=O)N(Cc2cccc3cn[nH]c23)[C@H]2C[C@@H](N)C2)ccc1-c1cccc(F)c1 [Compound 250]	< 100	–
CCOc1cc(C(=O)N(C)[C@@H](c2cncc3cn[nH]c23)C2CN(CC)C2)ccc1-c1cccc(C)c1 [Compound 169]	< 100	–
CCOc1cc(C(=O)N(CCO)Cc2cncc3cn[nH]c23)ccc1-c1cccc(F)c1 [Compound 041]	< 100	–
CCOc1cc(C(=O)N(C)[C@@H](CN(C)C)c2cncc3cn[nH]c23)ccc1-c1cccc(F)c1 [Compound 122]	500 to 1000	–
CCOc1cc(C(=O)N(Cc2cnc(C)c3cn[nH]c23)[C@@H]2CC[C@H]2O)ccc1-c1cccc(F)c1 [Compound 057]	100 to 500	–
CCOc1cc(C(=O)N(Cc2cncc3cn[nH]c23)[C@H]2C[C@@H](NC)C2)ccc1-c1ccccc1 [Compound 239]	< 100	–
CCOc1cc(C(=O)N(C)[C@@H](c2cncc3cn[nH]c23)C2CN(CC)C2)ccc1-c1cccc(F)c1 [Compound 173]	< 100	–
CCOc1cc(C(=O)N(C)[C@@H](c2cncc3cn[nH]c23)C2CN(C)C2)ccc1-c1ccccc1 [Compound 178]	< 100	–

SMILES	IC50 [2] [nM]	further results
CCOc1cc(C(=O)N(C)[C@H](CCN2CCC(F)(F)C2)c2cncc3cn[nH]c23)ccc1-c1cccc(F)c1 [Compound 100]	< 100	–
CCOc1cc(C(=O)N(C)[C@H](CCN(C)C)c2cnc(C)c3cn[nH]c23)ccc1-c1cccc(Cl)c1 [Compound 076]	< 100	–
CCOc1cc(C(=O)N(C)[C@H](CN2CCC2)c2cncc3cn[nH]c23)ccc1-c1cccc(F)c1 [Compound 123]	500 to 1000	–
CCOc1cc(C(=O)N(C)[C@H](CC[N+]([O-])(CC)CC)c2cccc3cn[nH]c23)ccc1-c1cccc(F)c1 [Compound 216]	< 100	–
CCOc1cc(C(=O)N(C[C@@H](C)O)[C@H](C)c2cnc(C)c3cn[nH]c23)ccc1-c1cccc(F)c1 [Compound 058]	< 100	–
CCOc1cc(C(=O)N(C)[C@H](CCN(CC)CC)c2cncc3cn[nH]c23)ccc1-c1cccc(F)c1 [Compound 103]	< 100	–
Cc1ncc([C@@H](CCO)N(C)C(=O)c2ccc(-c3cccc(Cl)c3)c(OC3CC3)c2)c2[nH]ncc12 [Compound 026]	< 100	–
CCOc1cc(C(=O)N(CCO)Cc2cnc(NC)c3cn[nH]c23)ccc1-c1cccc(Cl)c1 [Compound 049]	< 100	–
CCOc1cc(C(=O)N(C)C(CN(C)CC)c2cccc3cn[nH]c23)ccc1-c1cccc(F)c1 (centres unmarked) [Compound 258]	100 to 500	–
CCOc1cc(C(=O)N(C)[C@H](CCN(C)C)c2cncc3cn[nH]c23)ccc1C1CCC1 [Compound 156]	< 100	–
CCOc1cc(C(=O)N(C)[C@H](CN(C)C)c2cncc3cn[nH]c23)ccc1-c1cccc(Cl)c1 [Compound 125]	< 100	–
CCOc1cc(C(=O)N(C)[C@H](CCNCCCF)c2cncc3cn[nH]c23)ccc1-c1cccc(Cl)c1 [Compound 139]	< 100	–
CCOc1cc(C(=O)N(Cc2ccc(C)c3cn[nH]c23)[C@H]2C[C@@H](NC)C2)ccc1-c1cccc(Cl)c1 [Compound 286]	< 100	–
CCOc1cc(C(=O)N(C)[C@H](CCN2CCC2)c2cccc3cn[nH]c23)ccc1-c1cccc(Cl)c1 [Compound 218]	< 100	–
CCOc1cc(C(=O)N(C)[C@@H](c2cncc3cn[nH]c23)[C@@H]2CCNC2)ccc1-c1cccc(F)c1 (single isomer, unassigned) [Compound 087]	< 100	–
CCOc1cc(C(=O)N(C)[C@H](CCN(C)C)c2cnc(C)c3cn[nH]c23)ccc1-c1cc(Cl)cc(Cl)c1 [Compound 083]	< 100	–
Cc1ccc([C@H](CCN(C)C)N(C)C(=O)c2ccc(-c3cccc(F)c3)c(OC3CC3)c2)c2[nH]ncc12 [Compound 203]	< 100	–
CCOc1cc(C(=O)N(Cc2cnc(C)c3cn[nH]c23)C(C)CO)ccc1-c1cccc(F)c1 (centres unmarked) [Compound 052]	> 15000	–
